Source: patent US20250214991A1 (Oncopia Therapeutics, Inc. d/b/a/ SK Life Science Labs, priority 2022, published 2025)

Experiments:
[1] = target: CRBN/DDB1 (Homo sapiens (Human), UniProt Q96SW2); test: IC50 measurements for binding to CRBN/DDB1 (HTRF); conditions: His tagged CRBN+DDB, Cy5-labeled Thalidomide probe, one hour
Outline: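 Serially diluted compounds compete with a Cy5-labeled thalidomide tracer (60 nM) for His-tagged CRBN-DDB1 (2 nM), detected via anti-6His Tb cryptate (0.4 nM); buffer HEPES pH 7.5 with TCEP, Brij-35, NaCl, BSA. One-hour room-temperature incubation, HTRF signal read, IC50 by four-parameter curve.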

[2] = target: IKZF2 (Homo sapiens (Human), UniProt Q96SW2+Q9UKS7); test: In vitro IKZF2 FACS Assay in Jurkat cells; assay type: cell-based; conditions: 24 hrs; for DC50: half maximal degradation concentration; for Dmax: maximal degradation percentage
Description: In vitro IKZF2 FACS Assay
DC50, A: <1 nM; B: 1-10 nM; C: 10-100 nM; D: 100-1000 nM; E: >1000 nM. Dmax, A: >80%; B: 60-80%; C: 40-60%; D: 20-40%; E: <20%.

Chain of IKZF2 (Q9UKS7 whole entry): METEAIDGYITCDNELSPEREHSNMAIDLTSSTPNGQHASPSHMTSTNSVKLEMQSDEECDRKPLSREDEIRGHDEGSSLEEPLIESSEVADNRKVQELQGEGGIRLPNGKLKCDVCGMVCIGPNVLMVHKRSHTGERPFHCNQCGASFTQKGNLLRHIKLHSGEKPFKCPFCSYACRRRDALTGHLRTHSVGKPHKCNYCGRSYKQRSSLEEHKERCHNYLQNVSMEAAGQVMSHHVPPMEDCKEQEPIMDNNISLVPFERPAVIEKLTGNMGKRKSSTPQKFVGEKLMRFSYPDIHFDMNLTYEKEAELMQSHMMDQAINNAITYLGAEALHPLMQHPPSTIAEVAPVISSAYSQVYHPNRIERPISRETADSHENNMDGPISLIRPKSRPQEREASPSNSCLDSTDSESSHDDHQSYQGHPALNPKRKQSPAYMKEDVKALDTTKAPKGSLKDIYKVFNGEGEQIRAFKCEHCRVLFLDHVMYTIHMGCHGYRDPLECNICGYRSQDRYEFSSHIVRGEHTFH
Chain of IKZF2 (Q96SW2 whole entry): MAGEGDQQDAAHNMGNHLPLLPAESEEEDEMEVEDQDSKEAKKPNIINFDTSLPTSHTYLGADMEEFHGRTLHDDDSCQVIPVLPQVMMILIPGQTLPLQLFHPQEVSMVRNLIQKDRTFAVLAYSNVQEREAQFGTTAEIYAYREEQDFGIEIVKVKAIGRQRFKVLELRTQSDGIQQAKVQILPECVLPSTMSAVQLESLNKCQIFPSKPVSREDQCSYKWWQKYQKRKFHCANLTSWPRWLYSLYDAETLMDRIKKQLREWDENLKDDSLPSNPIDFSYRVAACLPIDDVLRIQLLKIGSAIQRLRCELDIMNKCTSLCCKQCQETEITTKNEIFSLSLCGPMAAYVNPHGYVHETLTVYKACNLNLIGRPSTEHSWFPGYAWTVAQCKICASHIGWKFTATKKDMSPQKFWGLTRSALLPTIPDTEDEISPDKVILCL
Chain of IKZF2 (Q16531 2-1140 partner): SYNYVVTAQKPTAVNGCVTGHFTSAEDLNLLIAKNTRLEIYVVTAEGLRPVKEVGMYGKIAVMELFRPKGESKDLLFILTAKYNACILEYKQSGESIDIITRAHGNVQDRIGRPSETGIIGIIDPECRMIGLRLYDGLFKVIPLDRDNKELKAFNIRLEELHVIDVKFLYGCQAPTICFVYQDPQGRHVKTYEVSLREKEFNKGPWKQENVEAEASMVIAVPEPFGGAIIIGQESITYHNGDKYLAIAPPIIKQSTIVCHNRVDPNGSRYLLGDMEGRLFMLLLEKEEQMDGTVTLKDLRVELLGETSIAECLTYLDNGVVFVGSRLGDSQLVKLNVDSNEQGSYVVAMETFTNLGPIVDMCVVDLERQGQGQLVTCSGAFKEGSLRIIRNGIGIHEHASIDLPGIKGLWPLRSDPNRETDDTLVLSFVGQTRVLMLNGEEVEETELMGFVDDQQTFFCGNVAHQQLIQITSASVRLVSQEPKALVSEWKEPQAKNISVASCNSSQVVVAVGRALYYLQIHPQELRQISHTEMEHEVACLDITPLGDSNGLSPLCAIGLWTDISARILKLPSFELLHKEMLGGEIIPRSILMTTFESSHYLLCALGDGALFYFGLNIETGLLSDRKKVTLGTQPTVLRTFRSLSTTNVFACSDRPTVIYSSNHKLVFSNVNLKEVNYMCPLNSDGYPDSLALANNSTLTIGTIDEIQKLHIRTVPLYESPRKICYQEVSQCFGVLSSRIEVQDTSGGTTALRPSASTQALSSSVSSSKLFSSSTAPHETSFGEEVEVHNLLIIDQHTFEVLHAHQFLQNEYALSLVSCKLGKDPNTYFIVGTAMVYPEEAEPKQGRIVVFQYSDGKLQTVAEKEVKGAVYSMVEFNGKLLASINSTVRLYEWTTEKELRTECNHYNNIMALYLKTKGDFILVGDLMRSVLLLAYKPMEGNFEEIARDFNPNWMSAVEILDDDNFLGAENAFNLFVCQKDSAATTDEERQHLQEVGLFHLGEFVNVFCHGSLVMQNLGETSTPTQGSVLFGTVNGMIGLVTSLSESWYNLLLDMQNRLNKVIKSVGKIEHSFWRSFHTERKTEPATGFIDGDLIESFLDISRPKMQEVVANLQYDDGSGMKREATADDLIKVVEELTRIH
Chain of CRBN/DDB1 (Q96SW2 whole entry, species assumed): as the sequence (Q96SW2 whole entry) above
Chain of CRBN/DDB1 (Q16531 whole entry partner, species assumed): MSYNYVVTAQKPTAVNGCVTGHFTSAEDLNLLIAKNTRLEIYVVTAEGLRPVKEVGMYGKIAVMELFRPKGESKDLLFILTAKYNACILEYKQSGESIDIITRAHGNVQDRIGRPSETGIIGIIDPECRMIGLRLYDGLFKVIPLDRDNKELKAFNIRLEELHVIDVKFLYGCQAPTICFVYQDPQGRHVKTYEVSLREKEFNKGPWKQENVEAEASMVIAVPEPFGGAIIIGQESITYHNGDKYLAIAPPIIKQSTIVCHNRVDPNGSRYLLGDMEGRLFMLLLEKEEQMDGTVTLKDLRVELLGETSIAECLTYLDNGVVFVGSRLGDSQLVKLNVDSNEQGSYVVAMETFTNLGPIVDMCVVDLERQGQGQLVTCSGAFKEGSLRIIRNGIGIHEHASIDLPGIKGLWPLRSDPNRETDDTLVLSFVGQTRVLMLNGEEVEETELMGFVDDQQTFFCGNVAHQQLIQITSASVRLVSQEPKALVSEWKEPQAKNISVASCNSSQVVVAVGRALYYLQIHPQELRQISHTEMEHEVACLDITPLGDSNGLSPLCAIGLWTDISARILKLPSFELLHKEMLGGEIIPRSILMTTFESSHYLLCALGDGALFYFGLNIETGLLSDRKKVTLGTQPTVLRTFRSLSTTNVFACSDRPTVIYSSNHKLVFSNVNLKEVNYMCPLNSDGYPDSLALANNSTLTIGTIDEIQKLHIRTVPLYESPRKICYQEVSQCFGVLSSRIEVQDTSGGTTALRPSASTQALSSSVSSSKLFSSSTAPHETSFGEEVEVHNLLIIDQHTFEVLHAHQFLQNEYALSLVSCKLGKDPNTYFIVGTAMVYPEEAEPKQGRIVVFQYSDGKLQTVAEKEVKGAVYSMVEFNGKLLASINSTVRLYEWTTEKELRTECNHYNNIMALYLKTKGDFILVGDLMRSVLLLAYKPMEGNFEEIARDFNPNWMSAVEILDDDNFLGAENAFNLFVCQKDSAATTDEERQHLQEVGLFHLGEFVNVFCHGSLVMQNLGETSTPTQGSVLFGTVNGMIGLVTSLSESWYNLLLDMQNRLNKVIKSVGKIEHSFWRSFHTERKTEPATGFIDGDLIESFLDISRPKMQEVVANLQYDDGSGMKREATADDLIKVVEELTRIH

| Structure (SMILES) | IC50 [1] [nM] | DC50 [2] [nM] | Dmax [2] [%] |
| --- | --- | --- | --- |
| O=C1CCC(N2Cc3cc(-c4cc(CN5CCC5)cc5cncn45)ccc3C2=O)C(=O)N1 (stereo not drawn) [Example 2, 3-(5-(7-(azetidin-1-ylmethyl)imidazo[1,5-a]pyridin-5-yl)-1-oxoisoindolin-2-yl) piperidine-2,6-dione] | 100 to 500 | 100 to 1000 | 40 to 60 |
| O=C1CCC(N2Cc3cc(-c4cc(CN5CCOCC5)cc5cncn45)ccc3C2=O)C(=O)N1 (stereo not drawn) [Example 4, 3-(5-(7-(morpholinomethyl)imidazo[1,5-a]pyridin-5-yl)-1-oxoisoindolin-2-yl) piperidine-2,6-dione] | 1000 to 5000 | > 1000 | 20 to 40 |
| CC1CCCN(Cc2cc(-c3ccc4c(c3)CN(C3CCC(=O)NC3=O)C4=O)n3cncc3c2)C1 (stereo not drawn) [Example 5, 3-(5-(7-((3-methylpiperidin-1-yl)methyl)imidazo[1,5-a]pyridin-5-yl)-1-oxoisoindolin-2-yl) piperidine-2,6-dione] | 1000 to 5000 | 10 to 100 | 40 to 60 |
| O=C1CCC(N2Cc3cc(-c4cc(CN5CC6CC6C5)cc5cncn45)ccc3C2=O)C(=O)N1 (stereo not drawn) [Example 7, 3-(5-(7-((3-azabicyclo[3.1.0]hexan-3-yl)methyl)imidazo[1,5-a]pyridin-5-yl)-1-oxoisoindolin-2-yl) piperidine-2,6-dione] | 500 to 1000 | 10 to 100 | 40 to 60 |
| O=C1CCC(N2Cc3cc(-c4cc(CN5CCC6(CCC6)CC5)cc5cncn45)ccc3C2=O)C(=O)N1 (stereo not drawn) [Example 9, 3-(5-(7-((7-azaspiro[3.5]nonan-7-yl)methyl)imidazo[1,5-a]pyridin-5-yl)-1-oxoisoindolin-2-yl) piperidine-2,6-dione] | 500 to 1000 | 10 to 100 | 40 to 60 |
| O=C1CCC(N2Cc3cc(-c4cc(CN5CC6COCC(C6)C5)cc5cncn45)ccc3C2=O)C(=O)N1 (stereo not drawn) [Example 11] | 500 to 1000 | 100 to 1000 | 40 to 60 |
| CCN(CC)Cc1cc(-c2ccc3c(c2)CN(C2CCC(=O)NC2=O)C3=O)n2cncc2c1 (stereo not drawn) [Example 12, 3-(5-(7-((diethylamino)methyl)imidazo[1,5-a]pyridin-5-yl)-1-oxoisoindolin-2-yl) piperidine-2,6-dione] | 100 to 500 | 100 to 1000 | 40 to 60 |
| O=C1CCC(N2Cc3cc(-c4cc(CNCc5ccccc5)cc5cncn45)ccc3C2=O)C(=O)N1 (stereo not drawn) [Example 13, 3-(5-(7-((benzylamino)methyl)imidazo[1,5-a]pyridin-5-yl)-1-oxoisoindolin-2-yl) piperidine-2,6-dione] | 100 to 500 | 10 to 100 | 20 to 40 |
| CC(C)(NCc1cc(-c2ccc3c(c2)CN(C2CCC(=O)NC2=O)C3=O)n2cncc2c1)c1ccccc1 (stereo not drawn) [Example 18, 3-(1-oxo-5-(7-(((2-phenylpropan-2-yl)amino)methyl)imidazo[1,5-a]pyridin-5-yl)isoindolin-2-yl) piperidine-2,6-dione] | 500 to 1000 | 100 to 1000 | 40 to 60 |
| CN(Cc1cc(-c2ccc3c(c2)CN(C2CCC(=O)NC2=O)C3=O)n2cncc2c1)C(C)(C)c1ccccc1 (stereo not drawn) [Example 19, 3-(5-(7-((methyl (2-phenylpropan-2-yl)amino)methyl)imidazo[1,5-a]pyridin-5-yl)-1-oxoisoindolin-2-yl) piperidine-2,6-dione] | 1000 to 5000 | 100 to 1000 | 20 to 40 |
| CC(NCc1cc(-c2ccc3c(c2)CN(C2CCC(=O)NC2=O)C3=O)n2cncc2c1)c1cccc(Cl)c1 (stereo not drawn) [Example 20, 3-(5-(7-(((1-(3-chlorophenyl)ethyl)amino)methyl)imidazo[1,5-a]pyridin-5-yl)-1-oxoisoindolin-2-yl) piperidine-2,6-dione] | 1000 to 5000 | 10 to 100 | 20 to 40 |
| Cc1ccc(CCNCc2cc(-c3ccc4c(c3)CN(C3CCC(=O)NC3=O)C4=O)n3cncc3c2)cc1Cl (stereo not drawn) [Example 22] | 1000 to 5000 | > 1000 | 20 to 40 |
